# According to patent US9354230B2, “Methods and apparatus for conducting multiple measurements on a sample” (MESO SCALE TECHNOLOGIES, LLC., priority 2001, dated 2016):
# Assays:
# [1] = target: T1, HIV Reverse Transcriptase (RT) RNA-dependent DNA polymerase (RDDP) activity (Human immunodeficiency virus type 1 group M subtype B, UniProt P04585); test: ECL assay of HIV RT RDDP activity in one well of an MDMW Plate; assay type: biochemical; conditions: 125 uM; data not shown
# T1 construct: HIV Reverse Transcriptase (RT), an enzyme with both a RNA-dependent DNA polymerase (RDDP) activity and an RNAse H activity
# [2] = target: T2, HIV Reverse Transcriptase (RT) RNAse H activity (Human immunodeficiency virus type 1 group M subtype B, UniProt P04585); test: ECL assay of HIV RT RNAse H activity in one well of an MDMW Plate; assay type: biochemical; conditions: 125 uM; data not shown
# T2 construct: HIV Reverse Transcriptase (RT), an enzyme with both a RNA-dependent DNA polymerase (RDDP) activity and an RNAse H activity
structure (smiles),measurement,setting,value
Nc1ccn([C@H]2CC[C@@H](COP(=O)(O)OP(=O)(O)OP(=O)(O)O)O2)c(=O)n1 [ddCTP],inhibition of RDDP activity,[1],completely inhibited
same,effect on RNAse H activity,[2],no effect
